# Measurements published in publication PMC2119788 (The Journal of Cell Biology, 1993).
# Columns and labels:
# A-1 fibroblasts = conditions: previous report; ref Roch et al., 1992; cited from earlier work
# A-1 cells = type: cell-based; conditions: included in the assay media at 100 ug/ml; data not shown
Substance,Activity on the A-1 cell growth assay (A-1 fibroblasts),Inhibition of the growth-promoting effect of 17-mer or KB75 (A-1 cells)
TPDAVDKYLETPGDENEHAHFQKAKERLEAKHRERMSQVM [40-mer],active,–
heparin,–,failed to inhibit
heparan sulfate,–,failed to inhibit
